Results: ChEMBL document CHEMBL1201862, “PubChem BioAssay data set” (2004)
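Protocol summary: plate cells (96-well), add compound at 5 concentrations, incubate 48 h, interpolate endpoints linearly. GI50 is the concentration that inhibits growth by half.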 Active and inactive are the calls of the source. No stated cut-off is given here; in the data, active = GI50 up to about 1.1 µM and inactive = higher.

Experiments:
Experiment in all cases: DTP human tumour cell line panel, 48 h
SW-620 = tested on: SW-620
SR = tested on: SR
MDA-MB-231 = tested on: MDA-MB-231
HCT-116 = tested on: HCT-116
HCC 2998 = tested on: HCC 2998
IGROV-1 = tested on: IGROV-1
UO-31 = tested on: UO-31
M14 = tested on: M14
OVCAR-5 = tested on: OVCAR-5
DU-145 = tested on: DU-145
HOP-92 = tested on: HOP-92
SN12C = tested on: SN12C
CAKI-1 = tested on: CAKI-1
SF-539 = tested on: SF-539
UACC-62 = tested on: UACC-62
BT-549 = tested on: BT-549
NCI-H23 = tested on: NCI-H23
HOP-62 = tested on: HOP-62
OVCAR-3 = tested on: OVCAR-3
MCF7 = tested on: MCF7
PC-3 = tested on: PC-3
COLO 205 = tested on: COLO 205
LOX IMVI = tested on: LOX IMVI
NCI-H460 = tested on: NCI-H460
EKVX = tested on: EKVX
Malme-3M = tested on: Malme-3M
A549 = tested on: A549
MDA-N = tested on: MDA-N
CCRF-CEM = tested on: CCRF-CEM
MDA-MB-435 = tested on: MDA-MB-435
SF-295 = tested on: SF-295
OVCAR-4 = tested on: OVCAR-4
SK-OV-3 = tested on: SK-OV-3
K562 = tested on: K562
SK-MEL-28 = tested on: SK-MEL-28
UACC-257 = tested on: UACC-257
SK-MEL-2 = tested on: SK-MEL-2
T47D = tested on: T47D
MOLT-4 = tested on: MOLT-4
KM12 = tested on: KM12
NCI-H522 = tested on: NCI-H522
NCI-H226 = tested on: NCI-H226
OVCAR-8 = tested on: OVCAR-8
HT-29 = tested on: HT-29
SK-MEL-5 = tested on: SK-MEL-5
SNB-75 = tested on: SNB-75
U-251 = tested on: U-251
SF-268 = tested on: SF-268
NCI/ADR-RES = tested on: NCI/ADR-RES
A498 = tested on: A498
HCT-15 = tested on: HCT-15
786-0 = tested on: 786-0
ACHN = tested on: ACHN
RXF 393 = tested on: RXF 393
SNB-19 = tested on: SNB-19
Hs-578T = tested on: Hs-578T
TK-10 = tested on: TK-10
RPMI-8226 = tested on: RPMI-8226
HL-60 = tested on: HL-60

For CC(C)C(C/C=C1\CC(CO)(COC(=O)C2CCCCC2)OC1=O)C(C)C (stereo not drawn), the GI50 (SW-620) was 21.3 µM (inactive), the GI50 (SR) was 27 µM (inactive) and the GI50 (MDA-MB-231) was 16.8 µM (inactive). For the same molecule, the GI50 (HCT-116) was 19.2 µM (inactive), the GI50 (HCC 2998) was 27.9 µM (inactive) and the GI50 (IGROV-1) was 22.9 µM (inactive). The GI50 (UO-31) was 17.4 µM (inactive), the GI50 (M14) was 21.8 µM (inactive) and the GI50 (OVCAR-5) was 20 µM (inactive). For the same molecule, the GI50 (DU-145) was 12.3 µM (inactive), the GI50 (HOP-92) was 16.9 µM (inactive) and the GI50 (SN12C) was 16.7 µM (inactive). For the same molecule, the GI50 (CAKI-1) was 18.7 µM (inactive), the GI50 (SF-539) was 20.3 µM (inactive) and the GI50 (UACC-62) was 43.8 µM (inactive). For the same molecule, the GI50 (BT-549) was 23.7 µM (inactive), the GI50 (NCI-H23) was 20.6 µM (inactive) and the GI50 (HOP-62) was 13.2 µM (inactive). For the same molecule, the GI50 (OVCAR-3) was 20 µM (inactive), the GI50 (MCF7) was 21.2 µM (inactive) and the GI50 (PC-3) was 18.2 µM (inactive). For the same molecule, the GI50 (COLO 205) was 10.3 µM (inactive), the GI50 (LOX IMVI) was 15.7 µM (inactive) and the GI50 (NCI-H460) was 24.4 µM (inactive). For the same molecule, the GI50 (EKVX) was 19 µM (inactive), the GI50 (Malme-3M) was 16.2 µM (inactive) and the GI50 (A549) was 16.8 µM (inactive). The GI50 (MDA-N) was 24.1 µM (inactive), the GI50 (CCRF-CEM) was 16.9 µM (inactive) and the GI50 (MDA-MB-435) was 44.8 µM (inactive). For the same molecule, the GI50 (SF-295) was 16.3 µM (inactive), the GI50 (OVCAR-4) was 18 µM (inactive) and the GI50 (SK-OV-3) was > 100 µM (inactive). The GI50 (K562) was 6.25 µM (inactive), the GI50 (SK-MEL-28) was 16.6 µM (inactive) and the GI50 (UACC-257) was 32.2 µM (inactive). The GI50 (SK-MEL-2) was > 100 µM (inactive), the GI50 (T47D) was 21.2 µM (inactive) and the GI50 (MOLT-4) was 6.87 µM (inactive). The GI50 (KM12) was 18.4 µM (inactive), the GI50 (NCI-H522) was 16.5 µM (inactive) and the GI50 (NCI-H226) was 18.2 µM (inactive). For the same molecule, the GI50 (OVCAR-8) was 18.7 µM (inactive), the GI50 (HT-29) was 30.6 µM (inactive) and the GI50 (SK-MEL-5) was 31.6 µM (inactive). The GI50 (SNB-75) was 12.9 µM (inactive), the GI50 (U-251) was 19 µM (inactive) and the GI50 (SF-268) was 17.7 µM (inactive). For the same molecule, the GI50 (NCI/ADR-RES) was 20.7 µM (inactive), the GI50 (A498) was 44.8 µM (inactive) and the GI50 (HCT-15) was 21.7 µM. The GI50 (786-0) was 13.7 µM (inactive), the GI50 (ACHN) was 16 µM (inactive) and the GI50 (RXF 393) was 19.1 µM (inactive). The GI50 (SNB-19) was 16.3 µM (inactive), the GI50 (Hs-578T) was 13.2 µM (inactive) and the GI50 (TK-10) was 21 µM (inactive).
For Cc1cn(C2CC(O)C(CO[Si](C)(C)C(C)(C)C)OC2OC(C)C)c(=O)[nH]c1=O (stereo not drawn), the GI50 (SW-620) was 49.4 µM (inactive), the GI50 (SR) was 31.2 µM (inactive) and the GI50 (MDA-MB-231) was 35.2 µM (inactive). For the same molecule, the GI50 (HCT-116) was 16.5 µM (inactive), the GI50 (HCC 2998) was 24.5 µM (inactive) and the GI50 (IGROV-1) was 29.8 µM (inactive). The GI50 (UO-31) was 44.8 µM (inactive), the GI50 (M14) was 34.9 µM (inactive) and the GI50 (OVCAR-5) was > 100 µM (inactive). For the same molecule, the GI50 (DU-145) was > 100 µM (inactive), the GI50 (HOP-92) was 32.2 µM (inactive) and the GI50 (SN12C) was 39.6 µM (inactive). The GI50 (CAKI-1) was 55.2 µM (inactive), the GI50 (SF-539) was 21.9 µM (inactive) and the GI50 (UACC-62) was > 100 µM (inactive). The GI50 (BT-549) was 44.9 µM (inactive), the GI50 (NCI-H23) was 39.6 µM (inactive) and the GI50 (OVCAR-3) was 20.6 µM (inactive). The GI50 (MCF7) was 22.4 µM (inactive), the GI50 (PC-3) was 33.6 µM (inactive) and the GI50 (COLO 205) was 21.5 µM (inactive). For the same molecule, the GI50 (LOX IMVI) was 18.5 µM (inactive), the GI50 (NCI-H460) was 31.6 µM (inactive) and the GI50 (EKVX) was 42.5 µM (inactive). For the same molecule, the GI50 (Malme-3M) was 44.5 µM (inactive), the GI50 (RPMI-8226) was 37.7 µM (inactive) and the GI50 (A549) was 34.1 µM (inactive). The GI50 (MDA-N) was 36.1 µM (inactive), the GI50 (CCRF-CEM) was 36.1 µM (inactive) and the GI50 (MDA-MB-435) was 60 µM (inactive). The GI50 (SF-295) was 65 µM (inactive), the GI50 (OVCAR-4) was 44.5 µM (inactive) and the GI50 (K562) was 49.3 µM (inactive). For the same molecule, the GI50 (SK-MEL-28) was 41 µM (inactive), the GI50 (UACC-257) was 34.6 µM (inactive) and the GI50 (SK-MEL-2) was 36 µM (inactive). For the same molecule, the GI50 (T47D) was 72.3 µM (inactive), the GI50 (KM12) was 49.5 µM (inactive) and the GI50 (NCI-H522) was 30.2 µM (inactive). The GI50 (NCI-H226) was 41.9 µM (inactive), the GI50 (OVCAR-8) was 33.5 µM (inactive) and the GI50 (HT-29) was 20 µM (inactive). The GI50 (SK-MEL-5) was 32.7 µM (inactive), the GI50 (SNB-75) was > 100 µM (inactive) and the GI50 (U-251) was 39.3 µM (inactive). For the same molecule, the GI50 (SF-268) was 51.3 µM (inactive), the GI50 (NCI/ADR-RES) was 43.1 µM (inactive) and the GI50 (A498) was > 10 µM (inactive). The GI50 (HCT-15) was 58.5 µM, the GI50 (786-0) was 16.6 µM (inactive) and the GI50 (ACHN) was 50.5 µM (inactive). The GI50 (RXF 393) was 34 µM (inactive), the GI50 (SNB-19) was 74.8 µM (inactive) and the GI50 (Hs-578T) was 67.3 µM (inactive). The GI50 (TK-10) was 39.5 µM (inactive).
For COc1ccc2[nH]cc(CN3CCC(CO)(c4ccccc4)CC3)c2c1, the GI50 (SW-620) was 21.2 µM (inactive), the GI50 (SR) was 22.1 µM (inactive) and the GI50 (HL-60) was 18.7 µM (inactive). The GI50 (MDA-MB-231) was 26.7 µM (inactive), the GI50 (HCT-116) was 15 µM (inactive) and the GI50 (HCC 2998) was 21 µM (inactive). For the same molecule, the GI50 (IGROV-1) was 38.5 µM (inactive), the GI50 (UO-31) was 22.4 µM (inactive) and the GI50 (M14) was 17.3 µM (inactive). The GI50 (OVCAR-5) was 68.5 µM (inactive), the GI50 (DU-145) was 45.2 µM (inactive) and the GI50 (SN12C) was 72.8 µM (inactive). The GI50 (UACC-62) was 25.9 µM (inactive), the GI50 (BT-549) was 78.9 µM (inactive) and the GI50 (NCI-H23) was 91.6 µM (inactive). The GI50 (HOP-62) was 19.7 µM (inactive), the GI50 (OVCAR-3) was 48.2 µM (inactive) and the GI50 (MCF7) was 20.8 µM (inactive). The GI50 (PC-3) was 31.1 µM (inactive), the GI50 (COLO 205) was 18.3 µM (inactive) and the GI50 (LOX IMVI) was 16.8 µM (inactive). The GI50 (NCI-H460) was 30 µM (inactive), the GI50 (EKVX) was 8.28 µM (inactive) and the GI50 (Malme-3M) was 25.8 µM (inactive). The GI50 (RPMI-8226) was 22.6 µM (inactive), the GI50 (A549) was 22.5 µM (inactive) and the GI50 (MDA-N) was 18.7 µM (inactive). The GI50 (CCRF-CEM) was 21.6 µM (inactive), the GI50 (MDA-MB-435) was 20.6 µM (inactive) and the GI50 (SF-295) was 16.1 µM (inactive). The GI50 (OVCAR-4) was 42.2 µM (inactive), the GI50 (SK-OV-3) was 0.53 µM (active) and the GI50 (K562) was 17.6 µM (inactive). The GI50 (SK-MEL-28) was 17.9 µM (inactive), the GI50 (UACC-257) was 17.5 µM (inactive) and the GI50 (SK-MEL-2) was 23.2 µM (inactive). The GI50 (T47D) was 20.9 µM (inactive), the GI50 (MOLT-4) was 21 µM (inactive) and the GI50 (KM12) was 17.9 µM (inactive). The GI50 (NCI-H522) was 18.9 µM (inactive), the GI50 (NCI-H226) was 43.5 µM (inactive) and the GI50 (OVCAR-8) was 52.7 µM (inactive). For the same molecule, the GI50 (HT-29) was 23.1 µM (inactive), the GI50 (SK-MEL-5) was 14.1 µM (inactive) and the GI50 (SNB-75) was 27 µM (inactive). The GI50 (U-251) was 30.3 µM (inactive), the GI50 (SF-268) was 11.9 µM (inactive) and the GI50 (NCI/ADR-RES) was > 100 µM (inactive). For the same molecule, the GI50 (A498) was 45.8 µM (inactive), the GI50 (HCT-15) was 35.1 µM and the GI50 (786-0) was 15.3 µM (inactive). The GI50 (ACHN) was 20.2 µM (inactive), the GI50 (RXF 393) was 71.4 µM (inactive) and the GI50 (SNB-19) was > 100 µM (inactive). For the same molecule, the GI50 (Hs-578T) was 25.7 µM (inactive) and the GI50 (TK-10) was 95.9 µM (inactive).
